Measurements published in ChEMBL document CHEMBL1132959, “Design of potent dicyclic (1-5/4-10) gonadotropin releasing hormone (GnRH) antagonists” (J Med Chem, 2000).

Columns and labels:
[1] = organism: Rattus norvegicus; experiment: Antiovulatory potency at 1000 ug/rat expressed as rats ovulating by total no. of rats (3/3); assay type: functional
[2] = organism: Rattus norvegicus; experiment: Antiovulatory potency at 1000 ug/rat expressed as rats ovulating by total no. of rats (5/5); assay type: functional
[3] = organism: Rattus norvegicus; experiment: Antiovulatory potency at 250 ug/rat expressed as rats ovulating by total no. of rats (1/5); assay type: functional
[4] = organism: Rattus norvegicus; experiment: Antiovulatory potency at 500 ug/rat expressed as rats ovulating by total no. of rats (5/9); assay type: functional
[5] = molecular target: T1, Gonadotropin-releasing hormone receptor (Rattus norvegicus, UniProt P30969); experiment: Affinity for rat gonadotrophin releasing hormone (GnRH) receptor using HEK293 cells transfected with rat Gonadotropin-releasing hormone receptor; assay type: cell-based; settings: hek293
T1 sequence (P30969 whole entry): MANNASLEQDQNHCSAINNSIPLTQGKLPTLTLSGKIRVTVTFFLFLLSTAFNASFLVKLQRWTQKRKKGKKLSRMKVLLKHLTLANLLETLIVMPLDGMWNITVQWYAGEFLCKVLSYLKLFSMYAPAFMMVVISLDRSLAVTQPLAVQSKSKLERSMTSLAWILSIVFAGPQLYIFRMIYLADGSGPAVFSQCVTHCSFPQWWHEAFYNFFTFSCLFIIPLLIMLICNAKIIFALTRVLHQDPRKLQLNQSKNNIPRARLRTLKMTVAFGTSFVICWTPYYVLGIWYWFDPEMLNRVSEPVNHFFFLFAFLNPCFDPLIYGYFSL

[6] = organism: Rattus norvegicus; experiment: Antiovulatory potency at 100 ug/rat expressed as rats ovulating by total no. of rats (1/8); assay type: functional
[7] = organism: Rattus norvegicus; experiment: Antiovulatory potency at 250 ug/rat expressed as rats ovulating by total no. of rats (0/5); assay type: functional
[8] = organism: Rattus norvegicus; experiment: Antiovulatory potency at 100 ug/rat expressed as rats ovulating by total no. of rats (0/3); assay type: functional
[9] = organism: Rattus norvegicus; experiment: Antiovulatory potency at 25 ug/rat expressed as rats ovulating by total no. of rats (3/6); assay type: functional
[10] = organism: Rattus norvegicus; experiment: Antiovulatory potency at 10 ug/rat expressed as rats ovulating by total no. of rats (3/3); assay type: functional
[11] = organism: Rattus norvegicus; experiment: Antiovulatory potency at 50 ug/rat expressed as rats ovulating by total no. of rats (2/5); assay type: functional
[12] = organism: Rattus norvegicus; experiment: Antiovulatory potency at 50 ug/rat expressed as rats ovulating by total no. of rats (1/8); assay type: functional
[13] = organism: Rattus norvegicus; experiment: Antiovulatory potency at 25 ug/rat expressed as rats ovulating by total no. of rats (5/5); assay type: functional
[14] = organism: Rattus norvegicus; experiment: Antiovulatory potency at 100 ug/rat expressed as rats ovulating by total no. of rats (0/8); assay type: functional
[15] = molecular target: T1, Gonadotropin-releasing hormone receptor; experiment: Affinity for rat Gonadotropin-releasing hormone receptor membrane evaluated using HEK293 cells transfected with rat Gonadotropin-releasing hormone receptor; assay type: cell-based
[16] = organism: Rattus norvegicus; experiment: Antiovulatory potency at 500 ug/rat expressed as rats ovulating by total no. of rats (4/10); assay type: functional
[17] = organism: Rattus norvegicus; experiment: Antiovulatory potency at 25 ug/rat expressed as rats ovulating by total no. of rats (4/4); assay type: functional
[18] = organism: Rattus norvegicus; experiment: Antiovulatory potency at 50 ug/rat expressed as rats ovulating by total no. of rats (4/8); assay type: functional
[19] = organism: Rattus norvegicus; experiment: Antiovulatory potency at 250 ug/rat expressed as rats ovulating by total no. of rats (0/4); assay type: functional
[20] = organism: Rattus norvegicus; experiment: Antiovulatory potency at 100 ug/rat expressed as rats ovulating by total no. of rats (14/14); assay type: functional
[21] = organism: Rattus norvegicus; experiment: Antiovulatory potency at 10 ug/rat expressed as rats ovulating by total no. of rats (5/5); assay type: functional
[22] = organism: Rattus norvegicus; experiment: Antiovulatory potency at 25 ug/rat expressed as rats ovulating by total no. of rats (0/3); assay type: functional
[23] = organism: Rattus norvegicus; experiment: Antiovulatory potency at 10 ug/rat expressed as rats ovulating by total no. of rats (2/8); assay type: functional
[24] = organism: Rattus norvegicus; experiment: Antiovulatory potency at 10 ug/rat expressed as rats ovulating by total no. of rats (2/7); assay type: functional
[25] = organism: Rattus norvegicus; experiment: Antiovulatory potency at 5 ug/rat expressed as rats ovulating by total no. of rats (3/3); assay type: functional
[26] = organism: Rattus norvegicus; experiment: Antiovulatory potency at 25 ug/rat expressed as rats ovulating by total no. of rats (1/5); assay type: functional
[27] = organism: Rattus norvegicus; experiment: Antiovulatory potency at 10 ug/rat expressed as rats ovulating by total no. of rats (4/8); assay type: functional
[28] = organism: Rattus norvegicus; experiment: Antiovulatory potency at 5 ug/rat expressed as rats ovulating by total no. of rats (3/4); assay type: functional
[29] = organism: Rattus norvegicus; experiment: Antiovulatory potency at 100 ug/rat expressed as rats ovulating by total no. of rats (4/7); assay type: functional
[30] = organism: Rattus norvegicus; experiment: Antiovulatory potency at 250 ug/rat expressed as rats ovulating by total no. of rats (4/4); assay type: functional
[31] = organism: Rattus norvegicus; experiment: Antiovulatory potency at 500 ug/rat expressed as rats ovulating by total no. of rats (6/6); assay type: functional
[32] = organism: Rattus norvegicus; experiment: Antiovulatory potency at 50 ug/rat expressed as rats ovulating by total no. of rats (0/5); assay type: functional
[33] = organism: Rattus norvegicus; experiment: Antiovulatory potency at 250 ug/rat expressed as rats ovulating by total no. of rats (7/7); assay type: functional

CC(=O)N[C@H](Cc1ccc2ccccc2c1)C(=O)N[C@H](Cc1ccc(Cl)cc1)C(=O)N[C@@H]1CCC(=O)NCCCC[C@@H](C(=O)N2CCC[C@H]2C(=O)N[C@H](C)C(N)=O)NC(=O)[C@H](CC(C)C)NC(=O)[C@@H](Cc2ccc3ccccc3c2)NC(=O)[C@H](CCCN=C(N)N)NC(=O)[C@H](C)NC1=O
Ovulating rats [1]: 3

CC(C)C[C@@H]1NC(=O)[C@@H](Cc2ccc3ccccc3c2)NC(=O)[C@H](CCCN=C(N)N)NC(=O)[C@H](C)NC(=O)[C@@H](Cc2cccnc2)NC(=O)[C@@H](Cc2ccc(Cl)cc2)NC(=O)[C@@H](Cc2ccc3ccccc3c2)NC(=O)CCC(=O)NCCCC[C@@H](C(=O)N2CCC[C@H]2C(=O)N[C@H](C)C(N)=O)NC1=O
Ovulating rats [2]: 5

CC(=O)N[C@@H]1CC(=O)NC[C@@H]2NC(=O)[C@@H](CC(=O)NC[C@H](C(N)=O)NC(=O)[C@H]3CCCN3C(=O)[C@H](CCCN=C(N)N)NC(=O)[C@@H](CC(C)C)NC(=O)[C@@H](Cc3ccc4ccccc4c3)NC2=O)NC(=O)[C@@H](Cc2c[nH]c3ccccc23)NC(=O)[C@H](Cc2ccc(Cl)cc2)NC1=O
Ovulating rats [3]: 1
Ovulating rats [4]: 5
Ki [5]: 4.8 nM

CC(=O)N[C@@H]1CCC(=O)NCC[C@H]2NC(=O)[C@@H](CC(=O)NC[C@H](C(N)=O)NC(=O)[C@H]3CCCN3C(=O)[C@H](CCCN=C(N)N)NC(=O)[C@@H](CC(C)C)NC(=O)[C@@H](Cc3ccc4ccccc4c3)NC2=O)NC(=O)[C@@H](Cc2c[nH]c3ccccc23)NC(=O)[C@H](Cc2ccc(Cl)cc2)NC1=O
Ovulating rats [6]: 1
Ovulating rats [7]: 0
Ki [5]: 1.7 nM

CC(=O)N[C@@H]1CC(=O)NCC(=O)NCCC[C@H]2NC(=O)[C@@H](CC(=O)NC[C@H](C(N)=O)NC(=O)[C@H]3CCCN3C(=O)[C@H](CCCN=C(N)N)NC(=O)[C@@H](CC(C)C)NC(=O)[C@@H](Cc3ccc4ccccc4c3)NC2=O)NC(=O)[C@@H](Cc2c[nH]c3ccccc23)NC(=O)[C@H](Cc2ccc(Cl)cc2)NC1=O
Ovulating rats [8]: 0
Ovulating rats [9]: 3
Ovulating rats [10]: 3
Ki [5]: 0.31 nM
Ovulating rats [11]: 2

CC(=O)N[C@@H]1CCC(=O)NCC(=O)NCC[C@@H]2NC(=O)[C@@H](CC(=O)NC[C@H](C(N)=O)NC(=O)[C@H]3CCCN3C(=O)[C@H](CCCN=C(N)N)NC(=O)[C@@H](CC(C)C)NC(=O)[C@@H](Cc3ccc4ccccc4c3)NC2=O)NC(=O)[C@@H](Cc2c[nH]c3ccccc23)NC(=O)[C@H](Cc2ccc(Cl)cc2)NC1=O
Ovulating rats [12]: 1
Ovulating rats [13]: 5
Ovulating rats [14]: 0

CC(=O)N[C@H](Cc1ccc2ccccc2c1)C(=O)N[C@@H]1CCC(=O)NCCCC[C@@H](C(=O)N2CCC[C@H]2C(=O)N[C@H](C)C(N)=O)NC(=O)[C@H](CC(C)C)NC(=O)[C@@H](Cc2ccc3ccccc3c2)NC(=O)[C@H](CCCN=C(N)N)NC(=O)[C@H](C)NC(=O)[C@@H](Cc2cccnc2)NC1=O
Ovulating rats [1]: 3

CC(=O)N[C@H]1CCC(=O)NCC(=O)NCC[C@H]2NC(=O)[C@H](CC(=O)NC[C@@H](C(N)=O)NC(=O)[C@@H]3CCCN3C(=O)[C@H](CCCNC(=N)N)NC(=O)[C@H](CC(C)C)NC(=O)[C@@H](Cc3ccc4ccccc4c3)NC2=O)NC(=O)[C@@H](Cc2c[nH]c3ccccc23)NC(=O)[C@@H](Cc2ccc(Cl)cc2)NC1=O
Ki [15]: 2.9 nM

CC(=O)N[C@H]1CSSC[C@H]2NC(=O)[C@@H](CC(=O)NC[C@H](C(N)=O)NC(=O)[C@H]3CCCN3C(=O)[C@H](CCCN=C(N)N)NC(=O)[C@@H](CC(C)C)NC(=O)[C@@H](Cc3ccc4ccccc4c3)NC2=O)NC(=O)[C@@H](Cc2c[nH]c3ccccc23)NC(=O)[C@H](Cc2ccc(Cl)cc2)NC1=O
Ovulating rats [16]: 4
Ki [5]: 0.25 nM

CC(=O)N[C@H]1CC(=O)NCC(=O)NCC[C@H]2NC(=O)[C@H](CC(=O)NC[C@@H](C(N)=O)NC(=O)[C@@H]3CCCN3C(=O)[C@H](CCCN=C(N)N)NC(=O)[C@H](CC(C)C)NC(=O)[C@@H](Cc3ccc4ccccc4c3)NC2=O)NC(=O)[C@@H](Cc2c[nH]c3ccccc23)NC(=O)[C@@H](Cc2ccc(Cl)cc2)NC1=O
Ovulating rats [17]: 4
Ovulating rats [18]: 4
Ovulating rats [14]: 0

CC(=O)N[C@H](Cc1ccc2ccccc2c1)C(=O)N[C@H](Cc1ccc(Cl)cc1)C(=O)N[C@@H]1CC(=O)NCC[C@@H](C(=O)N2CCC[C@H]2C(=O)N[C@H](C)C(N)=O)NC(=O)[C@H](CC(C)C)NC(=O)[C@@H](Cc2ccc3ccccc3c2)NC(=O)[C@H](CCCN=C(N)N)NC(=O)[C@H](C)NC1=O
Ovulating rats [19]: 0
Ovulating rats [20]: 14

CC(=O)N[C@@H]1CCC(=O)N[C@@H](C)C(=O)NCC[C@H]2NC(=O)[C@@H](CC(=O)NC[C@H](C(N)=O)NC(=O)[C@H]3CCCN3C(=O)[C@H](CCCN=C(N)N)NC(=O)[C@@H](CC(C)C)NC(=O)[C@@H](Cc3ccc4ccccc4c3)NC2=O)NC(=O)[C@@H](Cc2c[nH]c3ccccc23)NC(=O)[C@H](Cc2ccc(Cl)cc2)NC1=O
Ovulating rats [21]: 5
Ki [5]: 1.6 nM

CC(=O)N[C@@H]1CC(=O)NCC(=O)NC[C@H]2NC(=O)[C@@H](CC(=O)NC[C@H](C(N)=O)NC(=O)[C@H]3CCCN3C(=O)[C@H](CCCN=C(N)N)NC(=O)[C@@H](CC(C)C)NC(=O)[C@@H](Cc3ccc4ccccc4c3)NC2=O)NC(=O)[C@@H](Cc2c[nH]c3ccccc23)NC(=O)[C@H](Cc2ccc(Cl)cc2)NC1=O
Ovulating rats [22]: 0
Ovulating rats [23]: 2
Ki [5]: 0.49 nM

CC(=O)N[C@@H]1CCC(=O)NCC(=O)NC[C@H]2NC(=O)[C@@H](CC(=O)NC[C@H](C(N)=O)NC(=O)[C@H]3CCCN3C(=O)[C@H](CCCN=C(N)N)NC(=O)[C@@H](CC(C)C)NC(=O)[C@@H](Cc3ccc4ccccc4c3)NC2=O)NC(=O)[C@@H](Cc2c[nH]c3ccccc23)NC(=O)[C@H](Cc2ccc(Cl)cc2)NC1=O
Ovulating rats [24]: 2
Ovulating rats [25]: 3
Ki [5]: 0.44 nM

CC(=O)N[C@@H]1CCC(=O)NCCC(=O)NC[C@H]2NC(=O)[C@@H](CC(=O)NC[C@H](C(N)=O)NC(=O)[C@H]3CCCN3C(=O)[C@H](CCCN=C(N)N)NC(=O)[C@@H](CC(C)C)NC(=O)[C@@H](Cc3ccc4ccccc4c3)NC2=O)NC(=O)[C@@H](Cc2c[nH]c3ccccc23)NC(=O)[C@H](Cc2ccc(Cl)cc2)NC1=O
Ovulating rats [26]: 1
Ovulating rats [27]: 4
Ovulating rats [28]: 3
Ki [5]: 0.76 nM

CC(=O)N[C@H](Cc1ccc2ccccc2c1)C(=O)N[C@H](Cc1ccc(Cl)cc1)C(=O)N[C@@H]1CC(=O)NCCCC[C@@H]2NC(=O)[C@H](CC(C)C)NC(=O)[C@@H](Cc3ccc4ccccc4c3)NC(=O)[C@H](CCCN=C(N)N)NC(=O)[C@H](CC(=O)NC[C@@H](C(N)=O)NC(=O)[C@@H]3CCCN3C2=O)NC1=O
Ovulating rats [29]: 4
Ovulating rats [30]: 4

CC(=O)N[C@H]1CSSC[C@@H]2NC(=O)[C@@H](CC(=O)NC[C@H](C(N)=O)NC(=O)[C@H]3CCCN3C(=O)[C@H](CCCN=C(N)N)NC(=O)[C@@H](CC(C)C)NC(=O)[C@H](CCCN=C(N)N)NC2=O)NC(=O)[C@@H](Cc2c[nH]c3ccccc23)NC(=O)[C@H](Cc2ccc(Cl)cc2)NC1=O
Ovulating rats [31]: 6
Ki [5]: 89 nM

CC(=O)N[C@H]1CCC(=O)NCCCC[C@@H]2NC(=O)[C@H](CC(C)C)NC(=O)[C@@H](Cc3ccc4ccccc4c3)NC(=O)[C@H](CCCN=C(N)N)NC(=O)[C@H](CC(=O)NC[C@H](C(N)=O)NC(=O)[C@@H]3CCCN3C2=O)NC(=O)[C@@H](Cc2cccnc2)NC(=O)[C@H](Cc2ccc(Cl)cc2)NC1=O
Ovulating rats [32]: 0
Ovulating rats [33]: 7
Ki [5]: 1.1 nM
